Experimental data reported in US20240050449A1, “Use of Acetyltanshinone IIA in Preparation of Medicament for Treating Lung Cancer and Medicament for Treating Lung Cancer” (UNIVERSITY OF MACAU, priority 2022, published 2024).

Legend:
A549 cells = experiment: Colony formation (cloning experiment), A549 cells; type: cell-based; conditions: 0.125 μM, 10 days
Protocol: Cells were seeded at a density of 1×10^3 per well in 6-well plates and cultured for 24 h. The cells were treated with medicament or DMSO for 10 days, after which the cells were washed once with 1×PBS, fixed with 4% paraformaldehyde for 20 min, and stained with 0.1% crystal violet for 15 min. The stained cells in each well were imaged and the number of colonies in each well was quantified using ImageJ software.

[1] = test system: p70S6K, AURKA, MET, S6RP and EGFR protein levels; experiment: Western blot time course of protein reduction in A549 and H1650 cells; type: cell-based; conditions: 2 μM
Protocol: Cells were washed once with PBS and frozen in RIPA lysis buffer containing protease and phosphatase inhibitors (Sigma-Aldrich) for 30 min. After sonication and centrifugation, the total protein concentration was determined by protein assay using Bio-Rad concentrated dye reagent (Bio-Rad). Equal amounts of protein ([…]) from each sample were separated by SDS-PAGE and electrotransferred to nitrocellulose membranes (GE Healthcare). Detection was performed on the membrane with a 1:1000 dilution of specific primary antibody followed by incubation with a 1:2000 dilution of the HRP conjugated secondary antibody. Finally, immunoreactivity is detected with a chemiluminescent substrate (Clarity Western ECL substrate; Bio-Rad). EGFR (#4267S), MET (#8198S), p-Akt (#9271L), akt (#9272S), p-mTOR (#5536S), mTOR (#2983S), p-p70S6K (#9234S), p70S6K (#2708S), p-S6RP (#4857S), S6RP (#2217S), p-4E-BP1 (#9455S) antibodies. 4E-BP1 (#9644S), p53 (#2527S), p21 waf1/Cip1 (#2947S), survivin (#2808S), cyclin B1 (#12231S), cyclin D3 (#2936S) and GAPDH (#2118S) were purchased from Cell Signaling Technology. Aurora A (#ab13824) and PLK1 (#ab189139) antibodies were from Abcam.
In FIGS. 7, A549 and H1650 cells were treated with ATA (2 μM) for 6, 12, 24, 36, and 48 h, and the protein levels of p70S6K, AURKA, MET, S6RP, and EGFR at each time point were determined by Western blot analysis as shown in (A), and the quantified protein levels are shown in (B). […] (D) is protein levels of p70S6K, p-p70S6K, S6RP, p-S6RP, p21, cyclin D3, AURKA, PLK1, cyclin B1, survivin, EGFR, and MET determined by Western blot analysis for A549 and H1650 cells treated with 10 nM p70S6K siRNA and siRNA negative control for 48 h. (E) is cell viability measured by MTT test for A549 and H1650 cells treated with 10 nM p70S6K siRNA and the negative control siRNA for 48 h. ****P<0.0001 was based on a one-way analysis of variance followed by Tukey's multiple comparison test. (F) It is protein levels of p21, cyclin D3, AURKA, PLK1, cyclin B1, survivin, EGFR, and MET determined by Western blot analysis for A549 and H1650 cells treated with LY294002 (2 μM), PF-4708671 (2 μM), rapamycin (2 μM) and ATA (2 μM) for 48 h. (G) is expression levels of EGFR, MET, p-p70S6K, p70S6K, p-S6RP, S6RP, p21, cyclin D3, AURKA, PLK1, cyclin B1 and survivin in fibroblast HDF, A549 and H1650 cells determined by Western blot analysis, respectively. Statistical data are expressed as the mean SD of three independent experiments.

## CC(=O)Oc1c(OC(C)=O)c2c(C)coc2c2ccc3c(c12)CCCC3(C)C [ATA, acetyltanshinone IIA]
A549 cells
  reduction of colony-forming capacity: 42%
[1]
  time at which AURKA protein decreased: 12 h
  time at which EGFR protein decreased: 48 to 72 h
  time at which MET protein decreased: 24 h
  time at which S6RP protein decreased: 36 h
  time at which p70S6K protein decreased: 6 h
